# Measured values as given in patent US11994511B2, “Biomarkers indicative of prostate cancer and treatment thereof” (UNIVERSITY OF MIAMI, priority 2017, dated 2024).
# How the values were obtained:
# Assay type in all cases: cell-based, human
# [1] = system: seven gene set (KIF20A, KIF23, TOP2A, CCNB1, CCNB2, BUB1, BUB1b) expression in LNCaP cells; test: qPCR expression of the seven gene set after androgen (R1881) stimulation, LNCaP; settings: R1881 0.1 nM, 16 hours, vs vehicle
# Description: (§1) LNCaP and 22Rv1 cells were seeded and 24 hours later were rinsed twice with PBS and incubated in serum free media for one hour. The cells were then incubated in media containing vehicle or R1881 (0.1 nM) for 16 hours prior to RNA extraction and qPCR analysis. FKBP5 was used as a positive control. Data represent one or two independent experiments, performed in biological triplicates, showing the mean±s.e.m., and normalized to vehicle control. Significant at a p value, ** p value<0.01, *** p value<0.001.
# (§2) RNA isolation and reverse transcriptase quantitative RT-qPCR: Total RNA was collected using Trizol according to the manufacturer's protocol (Life Technologies), and isolated using Direct-zol RNA MiniPrep Plus (Zymo Research, Catalog number R2072). Total RNA was reverse transcribed using a cDNA ReverseTranscription kit (Applied Biosystems, Catalog number 4368814) as per the manufacturer's protocol. TaqMan probes from Applied Biosystems for FKBP5 (Hs01561006 ml), UBE2C (Hs00964100 gl), KIF20A (Hs00993573 ml), KIF23 (Hs00370852 ml), TOP2A (Hs01032137 ml), CCNB1 (Hs01030099 ml), CCNB2 (Hs01084593 gl), BUB1 (Hs01557695 ml), BUBlb (Hs01084828 ml) and GAPDH (Hs02786624 gl) were used.
# (§3) Because of the overlapping transcriptomes of full length AR and AR-V7, we examined whether full length AR also regulated the seven gene set.
# [2] = system: seven gene set (KIF20A, KIF23, TOP2A, CCNB1, CCNB2, BUB1, BUB1b) expression in 22Rv1 cells; test: qPCR expression of the seven gene set after androgen (R1881) stimulation, 22Rv1; settings: 22Rv1, R1881 0.1 nM, 16 hours, vs vehicle
# Description: as §1, §2, §3
# 22Rv1 cells = test: Cell proliferation (cell confluence, Incucyte Zoom) and Compusyn combination index, CRPC cell line 22Rv1; settings: 72 hours; DOX 100 ng/mL [184 nM], N-9 200 ng/mL [613 nM]; 10% CSS; vs vehicle (DMSO)
# Description: FIG. 4A: The CRPC cell line 22Rv I was cultured in 2% CSS media and was treated for 72 hours with vehicle (DMSO), doxorubicin (DOX), N9-isopropylolomoucine (N-9), or the combination of DOX and N-9 at different concentrations. Cell confluence was monitored using Incucyte Zoom System and the experiments were done with eight replicates each. The data were analyzed using Compusyn software, and a normalized isobologram was built. […] CI=1 represents additivity, CI<1 synergism, and Cl>1 antagonistic effects. […] Cell confluence was monitored using the Incucyte Zoom System. […] Cell confluence was monitored using the Incucyte Zoom System. […]
# (§4) Cell proliferation: For growth assay, cells were plated in 96-well plates at 5,000 cells/well (for RWPE-1), or 7,500 cells/well (for 22Rvl, C4-2B, PC3), in 6-12 replicates. […] The Incucyte Zoom software was used to analyzed and graph the results.
# To test whether inhibition of this network decreased CRPC cell proliferation, we used doxoruhicin (DOX), which inhibits TOP2A (Tacar et al., 201.3), and N9-isopropylolomoucine (N-9), which targets CCNB 1/CDK1 (Havlicek et al, 1997). […] The normalized isohologram and combination index (CI) were built and determined using Compusyn software.
# RWPE-1 cells = test: Cell proliferation (cell confluence, Incucyte Zoom), non-tumorigenic prostate epithelial cell line RWPE-1; settings: 72 hours; DOX 100 ng/mL [184 nM], N-9 200 ng/mL [613 nM]; vs vehicle (DMSO)
# Description: (§5) Cell confluence was monitored using Incucyte Zoom System and the experiments were done with eight replicates each. […] FIG. 4B: The non-tumorigenic prostate epithelial cell line RWPE1, the AR-null PC cell line PC3, and the CRPC cell lines C4-2B and 22Rv1 were treated for 72 hours with vehicle (DMSO), DOX (100 ng/mL [184 nM]), N-9 (200 ng/mL [613 nM]), or the combination of DOX (100 ng/mL [184 nM]) and N-9 (200 ng/mL [613 nM]). C4-2B and 22Rv1 cells were kept in 10% CSS media. Cell confluence was monitored using the Incucyte Zoom System. […] Cell confluence was monitored using the Incucyte Zoom System.
# (§6) FIG. 19: The non-tumorigenic prostate epithelial cell line RWPE1, the AR-null PC cell line PC3, the CRPC cell lines C4-2B and 22Rvl and androgen dependent cell line LNCaP were treated for 72 hours with vehicle (DMSO), DOX (100 ng/mL [184 nM]), N-9 (200 ng/mL [613 nM]), or the combination of DOX (100 ng/mL [184 nM]) and N-9 (200 ng/mL [613 nM]). […] Cell confluence was monitored using the Incucyte Zoom System. […]
# as §4
# PC3 cells = test: Cell proliferation (cell confluence, Incucyte Zoom), AR-null PC cell line PC3; settings: 72 hours; DOX 100 ng/mL [184 nM], N-9 200 ng/mL [613 nM]; vs vehicle (DMSO)
# Description: as §5, §6, §4
# C4-2B cells = test: Cell proliferation (cell confluence, Incucyte Zoom), CRPC cell line C4-2B; settings: 72 hours; DOX 100 ng/mL [184 nM], N-9 200 ng/mL [613 nM]; 10% CSS; vs vehicle (DMSO)
# Description: as §5, §6, §4
Compound,Regulation of expression of the seven genes (qPCR) [1],Regulation of expression of the seven genes (qPCR) [2],Effect on proliferation of 22Rv1 (22Rv1 cells),Effect on proliferation of RWPE-1 (RWPE-1 cells),Effect on proliferation of PC3 (PC3 cells),Effect on proliferation of C4-2B (C4-2B cells)
"C[C@]1(O)CC[C@H]2[C@@H]3CCC4=CC(=O)CCC4=C3C=C[C@@]21C [R1881, methyltrienolone]",None of the seven genes are regulated,None of the seven genes are regulated,–,–,–,–
"COc1cccc2c1C(=O)c1c(O)c3c(c(O)c1C2=O)C[C@@](O)(C(=O)CO)C[C@@H]3O[C@H]1C[C@H](N)[C@H](O)[C@H](C)O1 [DOX, Doxorubicin]",–,–,no significant effect,no significant effect,no significant effect,no significant effect
"CC(C)n1cnc2c(NCc3ccccc3)nc(NCCO)nc21 [N-9, N9-Isopropylolomoucine]",–,–,no significant effect,no significant effect,no significant effect,no significant effect
